US20220128542A1, “TREATMENT EFFICIENCY EVALUATION” (TX MEDIC AB, priority 2019, published 2022)

Test system: Human umbilical vein endothelial cells (HUVECs)
Assay: Gene expression array and pathway/upstream regulator analysis in HUVECs (Example 2)
Format: cell-based
Settings: for differentially expressed genes: HUVEC
Protocol: For each cell line, n=8×25 cm^2 culture flasks were set up. Two flasks were harvested for each cell type on the day of treatment (24 hours after seeding). This represents the Day0 time point. From the remaining flasks, three flasks were treated with Control Medium and three were treated with Culture Medium (CM) containing LMW-DS to give a final concentration of 0.01 mg/ml. Cells from the treated flasks were collected after 48 hours. Therefore the collected data represent (a) untreated cells (Day0 Controls and Day2 Controls) and (b) cells treated with LMW-DS for 48 hours (Day2 LMW-DS treated).
25 cm^2 flasks were coated by adding 2 ml per flask of a solution of 50 μg/ml poly-d-lysine in Hank's balanced salt solution (HBSS) and incubating overnight at 37° C. in the dark. Flasks were washed with cell culture water and air-dried for 30 min in the dark. Flasks were coated by adding 1 ml per flask of a solution of 25 μg/ml laminin in phosphate-buffered saline (PBS) and incubating for 2 hour at 37° C. in the dark. The laminin flasks were washed with PBS three times before plating cells.
Medium 200+Large Vessel Endothelial Supplement (M200+LVES) additive (1:50) was prepared and pre-warmed to 37° C. Cells were thawed in a 37° C. water bath for no longer than 2 min and gently transferred into a 50 ml tube containing 20 ml Dulbecco's Modified Eagle Medium, Nutrient Mixture F-12 (DMEM-F12). The cell suspension was mixed by inverting the tube carefully twice. Cells were spun at 400×g for 10 minutes. Supernatant removed and cells were re-suspended in 10 ml of culture media (M200+LVES additive).
Cells were counted with the Cellometer. 1,000,000 cells/flask were seeded in 25 cm^2 flasks (n=8) and medium was topped up to a total of 5 ml per flask. Cells were incubated at 37° C. with 5% CO2. Cells were allowed to settle for 24 hours before LMW-DS treatment.
A fresh 100× LMW-DS stock (1.0 mg/ml) was prepared in sterile DMEM-F12. The concentrated drug stock was sterile filtered and added to the respective culture media (19.6 ml CM and 0.4 ml LMW-DS stock solution). The Control was made using 19.6 ml CM and 0.4 ml of DMEM-F12. LMW-DS and CM were added to the respective flasks (5 ml each) to reach the 0.01 mg/ml concentration of LMW-DS in each dish with a total of 10 ml CM each.
CM was aspirated into a clean and labelled 15 ml Falcon tube. The flasks (without culture medium) were placed into the −80° C. freezer for 30 minutes. The CM in the Falcon tubes was spun at 3000×g for 5 minutes. Supernatant was removed and the small pellet was re-suspended in 2.5 ml Trizol:Water (4:1) solution at room temperature (RT, ˜22° C.).
The frozen flasks were removed one-by one from the freezer and the Trizol-Water from the appropriate tubes was moved to the flask. Flasks were left at RT for 5 minutes before the content was aspirated back into the 15 ml Falcon tube (after washing the bottom of the flask with the solution thoroughly). The flasks were inspected under the microscope to ensure full removal of cells. The collected lysates in the 15 ml Falcon tubes were placed into the −80° C. freezer.
Falcon tubes containing the homogenates were removed from the freezer and stored for 5 minutes at RT to permit the complete dissociation of nucleoprotein complexes.
Two aliquots of 1 ml lysate were removed from each sample and 200 μl of chloroform was added to each (0.2 ml of chloroform per 1 ml of TRIzol Reagent used during the cell lysis step) and the tube was shaken vigorously. Samples were stored at RT for 2-3 minutes and subsequently centrifuged at 12,000×g for 15 minutes at 4° C.
The mixture separated into three layers: a lower red phenol-chloroform phase, an interphase and a colorless upper aqueous phase. The RNA remained in the top aqueous phase, DNA in the white middle (interphase) phase and protein in the pink bottom (organic) phase. The top ¾ of the aqueous phase was transferred to a new clean Eppendorf tube. […]

sodium salt of dextran sulfate [LMW-DS]
differentially expressed genes (D0 control vs D2 LMW-DS treated, 0.01 mg/ml): 1779 genes
differentially expressed genes (D2 control vs D2 LMW-DS treated, 0.01 mg/ml): 76 genes
cell adhesion (HUVECs): not affected
number of genes: no effect / abolished nutrient effect (HUVECs, 0.01 mg/ml, 48 hours): 67
number of genes: no effect / total (HUVECs, 0.01 mg/ml, 48 hours): 67
number of genes: significant downregulation / abolished nutrient effect (HUVECs, 0.01 mg/ml, 48 hours): 4
number of genes: significant downregulation / enhanced response to nutrients (HUVECs, 0.01 mg/ml, 48 hours): 120
number of genes: significant downregulation / not different from control (HUVECs, 0.01 mg/ml, 48 hours): 167
number of genes: significant downregulation / total (HUVECs, 0.01 mg/ml, 48 hours): 291
number of genes: significant upregulation / abolished nutrient effect (HUVECs, 0.01 mg/ml, 48 hours): 11
number of genes: significant upregulation / enhanced response to nutrients (HUVECs, 0.01 mg/ml, 48 hours): 229
number of genes: significant upregulation / not different from control (HUVECs, 0.01 mg/ml, 48 hours): 1326
number of genes: significant upregulation / total (HUVECs, 0.01 mg/ml, 48 hours): 1566
number of genes: total / abolished nutrient effect (HUVECs, 0.01 mg/ml, 48 hours): 82
number of genes: total / enhanced response to nutrients (HUVECs, 0.01 mg/ml, 48 hours): 349
number of genes: total / not different from control (HUVECs, 0.01 mg/ml, 48 hours): 1493
number of genes: total / total (HUVECs, 0.01 mg/ml, 48 hours): 1924
